Source: US20180318383A1, “PEPTIDE HAVING NEURONAL LOSS PREVENTION AND REGENERATION EFFECTS, AND COMPOSITION CONTAINING SAME” (GEMVAX & KAEL CO., LTD., priority 2015, published 2018)

Tests used:
[1] = system: GFAP; assay: GFAP expression in 3XTg-AD mice (western blotting); assay type: in vivo; conditions: hippocampus and whole brain; s.c. three times a week for two months; vs control and Donepezil, same amount
Experimental: (§1) To test the efficacy of PEP1 on AD, AD transgenic mice (3XTg-AD) were purchased from Jackson Laboratory. Genetic characteristics of the transgenic mice are as follows: B6; 129-Psen1tm1Mpm Tg(APPSwe, tauP301L)1Lfa/Mmjax. […] One week after mice were confirmed as pregnant, new mice were delivered and weaned for 3 weeks. Two weeks later, mature mice were obtained.
(§2) During the preliminary breeding and the entire period of the experiment, a temperature was maintained at 23±2° C. and a relative humidity was maintained at 60±10%, and then the mice were raised under a 12-hour dark/light cycle. Experimental animals were divided into five groups, and each group included 10 animals. The divided experimental groups are as follows. […]
(§3) The PEP1, physiological saline, donepezil and scramble peptide were subcutaneously injected at each concentration three times a week for two months from the age of 12 months, and then two months after the injection, cognitive/memory behavior tests (passive avoidance test and Y maze test) were performed to examine a degree of improvement in cognitive function and memory function. After the brain was extracted to separate the hippocampus, the amounts of amyloid beta in the hippocampus and the whole brain, and the amounts of an amyloid beta oligomer and NFT generated by tau hyperphosphorylation were determined by western blotting and immunostaining. […]

[2] = system: NSCs; assay: Cell migration assay (QCM-24-well kit); assay type: cell-based, rat; conditions: 20 μM Aβ25-35 + PEP1 1, 10, 50 μM
Experimental: A cell migration assay was carried out using a QCM-24-well cell migration kit. Briefly, 20 μM Aβ25-30 and each concentration of PEP1 (1, 10 or 50 μM) were added to a lower chamber, and 3×10^5 NSCs were cultured in an upper chamber at 37° C. for 24 hours. NSCs migrated toward the membrane, and after staining to observe the number of migrating cells, absorbance was measured at 560 nm.

[3] = system: NeuN; assay: NeuN expression in 3XTg-AD mice (western blotting); assay type: in vivo; conditions: hippocampus and whole brain; s.c. three times a week for two months from age 12 months; vs control and Donepezil, same amount
Experimental: as §1, §2, §3

[4] = system: β-amyloid; assay: Expression levels of all types of Aβs in 3XTg-AD mice (western blotting); assay type: in vivo; conditions: hippocampus and whole brain; vs control and Donepezil
Experimental: as §1, §2, §3

[5] = system: NSCs; assay: Mitochondria cell membrane potential (JC-1); assay type: cell-based, rat; conditions: 20 μM Aβ25-35 + PEP1 1, 10, 50 μM, 48 hours
Experimental: NSCs were plated in a 96-well plate at a density of 5×10^5 cells/well. The cells were treated with 20 μM Aβ25-30 and each concentration of PEP1 (1, 10 or 50 μM) at 37° C. for 48 hours.
The mitochondria cell membrane potential was measured using a JC-1 mitochondria cell membrane potential observation kit. The mitochondria cell membrane potential was observed using an ELISA reader. […] By observing dead cells or unhealthy cells at an FITC wavelength, it was confirmed that JC-1 is in a monomer state.

Sequence: EARPALLTSRLRFIPK (homo sapiens) [PEP1, hTERT-derived peptide consisting of 16 amino acids, telomerase location [611-626]]
- GFAP [1]: reduced
- migration ability of NSCs [2]: effectively restored migration
- NeuN [3]: increased
- expression levels of all types of Aβs [4]: decreased
- mitochondria cell membrane potential [5]: restored the cell membrane potential up to a level in a normal range
